# Experimental data: patent US4073883A, “Method for treatment of impaired hearing” (priority 1976, dated 1978)
# Key:
# rats of Wistar strain [1] = test: Chronic oral toxicity test in rats (26 weeks); assay type: in vivo
# Protocol: Coenzyme Q10 was compulsorily and orally administered to each group consisting of 10 male rats and 10 female rats of Wistar strain for 26 consecutive weeks in a ratio of 6 days a week. The dose was 6, 60 and 600 mg/Kg/day, respectively. Coenzyme Q10 was used in the form of gum Arabic suspension, whereas the solution containing gum Arabic alone is used as the control group. Collection of blood and urine samples and autopsies were carried out 26 weeks after the administration.
# rats of Wistar strain [2] = test: Subacute oral toxicity test in rats (5 weeks); assay type: in vivo
# Protocol: Coenzyme Q10 was compulsorily and orally administered every day for 5 weeks to each group consisting of 10 male rats and 10 female rats of Wistar strain. The dose was 40, 200, and 1000 mg/Kg/day, respectively. Coenzyme Q10 was used in the form of gum Arabic suspension, while the solution containing gum Arabic alone was used as the control group. Collection of blood and urine samples and autopsies were carried out 5 weeks after the initiation of administration.
# [3] = tested on: patients having impaired hearing caused by administration of a drug; test: Clinical test on the administration of Coenzyme Q10 for impaired hearing (audiometry); assay type: in vivo, human
# Protocol: 30 Mg/day of Coenzyme Q10 was administered perorally three times a day after meal. Duration of administration differed with patients in the range of from two weeks to four months.
# Coenzyme Q10 was administered to 9 patients having impaired hearing caused by administration of a drug (an antibiotic called poison against hearing organs). 8 of 9 patients were being administered with some poison against hearing organs at the time of the first medical examination of otorhinology. The remaining one patient was given streptomycin more than 10 years before then. It was pointed out that labyrinthine disorder was observed already and the administration of the poisons against hearing organs was discontinued in 5 of the 8 cases. In the remaining 3 cases, the treatment of the diseases with the poisons against hearing organs was continued with administration of Coenzyme Q10.
# In many cases, a combination of drugs such as combination of streptomycin (SM) with kanamycin (KM), kanendomycin (KDM) or gentamycin (GM) had been used.
# Determination of hearing acuity threshold value in air conduction and bone conduction and recruitment test were effected using an audiometer in a sound-proof chamber.
# The sum of the air conduction threshold value was determined in terms of decibel units and the values before and after the administration of Coenzyme Q10 were compared with each other.
# Air condition region values at 125 Hz, 250 Hz, 1 KHz, 2 KHz, 4 KHz and 8 KHz in audiogram were added together to obtain a value called the total region value at that time. In case the difference in the value between before and after the administration of Coenzyme Q10 is more than ± 35 db, it was judged to be improved or worsened and in case the difference is within 35 db, it was judged to be unchanged. In case a threshold value of a certain frequency is scaled out, a value of the maximum output at that frequency plus 5 db. was employed.
# rats = test: Teratogenesis test in rats; assay type: in vivo; details: 6, 60 and 600 mg/Kg/day
# rats of Wistar strain [4] = test: Acute toxicity test in rats (single dose, 7 days observation); assay type: in vivo; details: for Maximum dose (no case of deaths): 7 days
# Source text: (§1) In order to evaluate the acute toxicity of a single high dose administration of Coenzyme Q10, male and female rats of Wistar strain and male and female mice of ICR-JCL strain were used, and oral, intramuscular, subcutaneous, and intravenous administrations were studied. For the oral administration of Coenzyme Q10, gum Arabic suspension was used. For the intramuscular, subcutaneous and intravenous administrations, Coenzyme Q10 was used as its solution in a nonionic surfactant, Nikkol HCO-60. Nikkol HCO-60 is a trade name of a non-ionic surfactant comprised of hydrogenated castor oil/polyoxyethylene-60 mole ether available from Nikko Chemicals, Co. Ltd., Japan.
# (§2) Observations were carried out for 7 days by using six males and six females for each dose group.
# mice = test: Teratogenesis test in mice; assay type: in vivo; details: 6, 60 and 600 mg/Kg/day
# mice of ICR-JCL strain = test: Acute toxicity test in mice (single dose, 7 days observation); assay type: in vivo; details: for Maximum dose (no case of deaths): 7 days
# Source text: as §1, §2
# rabbits = test: Subacute oral toxicity test in rabbits (23 days); assay type: in vivo
# Protocol: Coenzyme Q10 was compulsorily and orally administered every day for 23 days to each group consisting of 6 male rabbits and 5 female rabbits. The dose was 6, 60 and 600 mg/Kg/day, respectively. Coenzyme Q10 was used in the form of gum Arabic suspension, whereas the solution containing gum Arabic alone was used as the control group. On the 24th day, blood samples were collected from all the animals, and 3 males and 2 females from each group were then selectively autopsied.
# [5] = attributed to spontaneous pneumonia and aspiration pneumonia due to an erroneous administration
# [6] = intramuscular, in Nikkol HCO-60, single dose
# [7] = intravenous, in Nikkol HCO-60, single dose
# [8] = oral, gum Arabic suspension, single dose
# [9] = relative to maximum doses of Table 1
# [10] = subcutaneous, in Nikkol HCO-60, single dose
# [11] = 6, 60, 600 mg/Kg/day oral, 23 days
smiles,measurement,setting,value
COC1=C(OC)C(=O)C(C/C=C(\C)CC/C=C(\C)CC/C=C(\C)CC/C=C(\C)CC/C=C(\C)CC/C=C(\C)CC/C=C(\C)CC/C=C(\C)CC/C=C(\C)CCC=C(C)C)=C(C)C1=O [Coenzyme Q10],body weight vs control,"rats of Wistar strain [1]; 6, 60, 600 mg/Kg/day oral, 26 weeks",increased as same as that of the control group
same,general condition vs control,"rats of Wistar strain [1]; 6, 60, 600 mg/Kg/day oral, 26 weeks, 6 days a week",no difference
same,biochemical tests of blood and urine vs control,rats of Wistar strain [1]; 26 weeks,No significant changes were recognized
same,weight of organs,rats of Wistar strain [1]; 26 weeks,no significant increase and decrease
same,"deaths, females",rats of Wistar strain [1]; [5],3 females
same,"deaths, males",rats of Wistar strain [1]; [5],11 males
same,toxicity,"rats of Wistar strain [1]; chronic oral, 26 weeks, overall",no toxicity was observed
same,macroscopical and histological observation vs control,"rats of Wistar strain [1]; hemoxylin.Eosine staining and liver fat staining, 26 weeks",abnormalities were not recognized
same,leukocytal percentages,"rats of Wistar strain [1]; not dose related, within the extent of physiological fluctuations",some increase and decrease
same,general condition and body weight vs control,"rats of Wistar strain [2]; 40, 200, 1000 mg/Kg/day oral, 5 weeks",no difference
same,dead animals during the experiment,rats of Wistar strain [2]; attributed to spontaneous pneumonia and aspiration pneumonia due to an error of administration,4 animals
same,toxicity seemingly due to the administration,"rats of Wistar strain [2]; subacute oral, 5 weeks, overall",there was not recognized the toxicity
same,effectiveness as a medicament for treating impaired hearing,[3]; overall conclusion,effective as a medicament for treating impaired hearing
same,ears improved (number of 18 ears),"[3]; with Coenzyme Q10, of 18 ears",13 ears
same,ears improved (percent),"[3]; with Coenzyme Q10, of 18 ears",72%
same,ears unchanged (number of 18 ears),"[3]; with Coenzyme Q10, of 18 ears",5 ears
same,ears unchanged (percent),"[3]; with Coenzyme Q10, of 18 ears",28%
same,worsening,"[3]; with Coenzyme Q10, of 18 ears",no worsening being observed
same,"adverse effects in mothers, fetuses, and newborns",rats,no adverse effects
same,"toxicity (overall, acute)","rats of Wistar strain [4]; acute, overall",extremely low
same,Maximum dose (no case of deaths),rats of Wistar strain [4]; [6],500 mg/kg
same,Maximum dose (no case of deaths),rats of Wistar strain [4]; [7],250 mg/kg
same,deaths,rats of Wistar strain [4]; maximum dose in each route,no case of deaths
same,Maximum dose (no case of deaths),rats of Wistar strain [4]; [8],4000 mg/kg
same,LD50,rats of Wistar strain [4]; [9],far higher than the maximum dose
same,Maximum dose (no case of deaths),rats of Wistar strain [4]; [10],500 mg/kg
same,"adverse effects in mothers, fetuses, and newborns",mice,no adverse effects
same,"toxicity (overall, acute)","mice of ICR-JCL strain; acute, overall",extremely low
same,Maximum dose (no case of deaths),mice of ICR-JCL strain; [6],500 mg/kg
same,Maximum dose (no case of deaths),mice of ICR-JCL strain; [7],250 mg/kg
same,deaths,mice of ICR-JCL strain; maximum dose in each route,no case of deaths
same,Maximum dose (no case of deaths),mice of ICR-JCL strain; [8],4000 mg/kg
same,LD50,mice of ICR-JCL strain; [9],far higher than the maximum dose
same,Maximum dose (no case of deaths),mice of ICR-JCL strain; [10],500 mg/kg
same,general condition and increase of body weight vs control,rabbits; [11],no difference
same,weight of each organ,rabbits; [11],no effect
same,electron-microscopic observation of liver,"rabbits; 7th, 14th, and 24th days after the administration",there were not recognized abnormal findings
same,findings suggesting toxicity,"rabbits; subacute oral, 23 days, overall",there were not recognized the findings
